Source: patent publication US8466110B2, “Use of an agent that restores tissue perfusion and oxygenation” (Duke University, priority 2005, dated 2013)
“Also recorded” adds a separate entry of the source.

Legend:
[1] = cited from earlier work
[2] = tested on: baroreceptor and peripheral vasculature; experiment: Summary of bioactivity of cell-free SNO-Hb and oxy-Hb (Table 3); type: in vivo, rat
tumor-feeding arterioles = experiment: Diameter of tumor-feeding arterioles in window chambers; type: in vivo, rat; parameters: key to TUMOR vascular diameter: 0, unchanged; ↓, decreased; ↑, increased; settings: for TUMOR vascular diameter: IV
Description: For i.v. infusions, the femoral artery and vein were cannulated and drugs were infused through the venous cannula. For i.a. infusions, the femoral and left carotid arteries were cannulated and drugs were infused through the carotid cannula. For window chamber experiments, the two window frames were surgically positioned in the dorsal skin flap, followed by tumor cell transplantation to the chamber tissue, as described in Dewhirst et al., 1996. Following several days of tumor growth, direct visualization of tumor-feeding arterioles was performed using intravital microscopy. Tumor-feeding arterioles in window chambers were visualized using transillumination. Arteriolar diameters were measured from videotaped images using an image-shearing monitor (IPM Inc., San Diego, Calif., United States of America).

quadriceps muscle [3] = experiment: Quadriceps muscle (systemic) perfusion by Laser Doppler flowmetry; type: in vivo, rat; parameters: key to SYSTEMIC perfusion: 0, unchanged; ↓, decreased; ↑, increased; settings: for muscle blood flow (leg quadriceps): hyperoxia versus normoxia
Fischer 344 rats [4] = experiment: Mean arterial pressure and heart rate; type: in vivo, rat; parameters: key to SYSTEMIC MAP / SYSTEMIC HR: 0, unchanged; ↓, decreased; ↑, increased
Experimental: Mean arterial pressure (MAP) and heart rate (HR) were measured with a blood pressure analyzer (Digi-Med, Micro-Med, Louisville, Ky., United States of America) connected to the femoral artery cannula as described in Dewhirst et al., 1996.

[5] = tested on: mammary adenocarcinoma R3230AC tumors; experiment: Tumor perfusion by Laser Doppler flowmetry; type: in vivo, rat; parameters: key to TUMOR perfusion: 0, unchanged; ↓, decreased; ↑, increased; settings: for tumor blood flow (perfusion), flank tumors: normoxic rats
[6] = Hb tetramer/dimer dissociation; type: physicochemical; settings: assuming plasma concentration of about 6.5 μmol/L, room air
Description: Hb dissociation from tetramers to dimers depends on Hb concentration and oxygen tension, and NO release from dimers is unresponsive to allosteric effectors (e.g., O2). […] Is there enough tetrameric SNO-Hb to sense oxygen and regulate NO delivery? Evidently yes, as a finely tuned regulation of SNO-Hb bioactivity by oxygen tension (NO release depends on local pO2) that contrasted with the O2-independent behavior of oxy-Hb was observed. That the plasma half-life of SNO on Hb was more than doubled during hyperoxia while protein clearance remained unaffected was also observed.

quadriceps muscle [7] = experiment: Quadriceps muscle pO2 during gas breathing; type: in vivo, rat
Experimental: (§1) Tumors were implanted in rats as described hereinabove, and the rats were set up to breathe either 100% O2, 100% O2 plus 100 parts per million ethyl nitrite (ENO), normal room air, or normal room air plus 100 ppm ENO. pO2 was monitored in the tumor or in quadriceps muscle from 30 minutes before the administration of the 100% O2/100% O2 plus 100 ppm ENO/room air/room air plus 100 ppm ENO, during 30 minutes of breathing of the gases, and for 30 minutes after the administered gas supply was removed.

[8] = tested on: mammary adenocarcinoma R3230AC tumors; experiment: Tumor growth delay after radiation; type: in vivo, rat; settings: 100 ppm ENO plus 100% O2; 2 Gy daily on days 0-4; versus 100% O2, room air, non-irradiated
Experimental: Tumors were implanted in rats as described hereinabove, and the tumors were irradiated daily with 2 Gy of irradiation on days 0-4. Relative tumor volumes were determined daily from day 0 to day 18 in rats that breathed room air (N=4), 100% O2 (N=4), or 100 ppm ENO plus 100% O2. As a control, relative tumor volumes for rats that breathed room air (N=3) and were not treated with radiation. were also determined.

[9] = tested on: mammary adenocarcinoma R3230AC tumors; experiment: Tumor pO2 during gas breathing; type: in vivo, rat
Experimental: as §1

Fischer 344 rats [10] = experiment: Blood gas and hemoglobin saturation measurements; type: in vivo, rat; settings: breathing 100% O2
Experimental: Blood gases and Hb oxygen saturation were measured using a 1640 oximeter coupled to a 482 co-oximeter (Instrumentation Laboratories, Lexington, Mass., United States of America) from 0.5 ml samples of femoral arterial and venous blood. For tumor microvessels in window chambers, Hb saturation was calculated from transmission optical measurements of vascular absorbance using a hyperspectral imaging technique described in Sorg et al., 2005. A liquid crystal tunable filter (CRI, Inc., Woburn, Mass., United States of America) placed in front of a CCD camera (DVC Company, Austin, Tex., United States of America) was used for band-limited imaging.

[11] = vascular pO2 at injection site low
[12] = i.v. infusion, normoxic animals
[13] = IV, Room air, change versus before treatment
[14] = 30 minutes breathing 100% O2 or 100% O2 plus 100 ppm ENO
[15] = 30 minutes breathing room air plus 100 ppm ENO
[16] = i.a. and i.v. infusion, control experiments
[17] = vascular pO2 at injection site any

Compound: S-nitrosohemoglobin [SNO-Hb]
- KD (tetramer/dimer), R conformer ([1]; R conformer): 3000 nM
- KD (tetramer/dimer), T conformer ([1]; T conformer): 3 nM
- Baroreceptor effect ([2]; vascular pO2 at injection site high): inhibition
- Peripheral effect ([2]; vascular pO2 at injection site high, dose-dependent effect): vasodilation
- Baroreceptor effect [2, 11]: none
- Peripheral effect [2, 11]: vasoconstriction
- TUMOR vascular diameter (tumor-feeding arterioles; 100% O2): 0
- TUMOR vascular diameter (tumor-feeding arterioles; Room air): 0
- diameter of tumor feeding arterioles (tumor-feeding arterioles; i.v. infusion, normoxic or hyperoxic rats, window chamber): no significant change
- SYSTEMIC perfusion (quadriceps muscle [3]; IA, 100% O2): 0
- SYSTEMIC perfusion (quadriceps muscle [3]; IA, Room air): 0
- SYSTEMIC perfusion (quadriceps muscle [3]; IV, 100% O2): 0
- SYSTEMIC perfusion (quadriceps muscle [3]; IV, Room air): ↓
- muscle blood flow (quadriceps) (quadriceps muscle [3]; i.a. infusion, independently of O2 delivery): remained unaltered
- muscle blood flow (leg quadriceps) (quadriceps muscle [3]; i.v. infusion): prevented under hyperoxia
- muscle perfusion in the quadriceps (quadriceps muscle [3]; i.v. infusion, rats breathing room air (normoxia)): decreased muscle perfusion more than Hb; also recorded: decrease in muscle blood flow
- SYSTEMIC HR (Fischer 344 rats [4]; IA, 100% O2): 0
- SYSTEMIC MAP (Fischer 344 rats [4]; IA, 100% O2): ↑
- SYSTEMIC HR (Fischer 344 rats [4]; IA, Room air): 0
- SYSTEMIC MAP (Fischer 344 rats [4]; IA, Room air): ↑
- SYSTEMIC HR (Fischer 344 rats [4]; IV, 100% O2): 0
- SYSTEMIC MAP (Fischer 344 rats [4]; IV, 100% O2): ↑
- SYSTEMIC HR (Fischer 344 rats [4]; IV, Room air): 0
- SYSTEMIC MAP (Fischer 344 rats [4]; IV, Room air): 0
- HR (Fischer 344 rats [4]; i.a. infusion, normoxic and hyperoxic): remained unchanged
- MAP (Fischer 344 rats [4]; i.a. infusion, from 5 minutes (normoxic) and 10 minutes (hyperoxic)): significant increase in MAP
- HR (Fischer 344 rats [4]; i.v. infusion, hyperoxia): no significant effect on HR
- MAP (Fischer 344 rats [4]; i.v. infusion, hyperoxia, from 10 minutes after infusion): significant increase in the MAP
- HR (Fischer 344 rats [4]; [12]): No change
- MAP (Fischer 344 rats [4]; [12]): No change
- TUMOR perfusion ([5]; IA, 100% O2): 0
- TUMOR perfusion ([5]; IA, Room air): 0
- TUMOR perfusion ([5]; IV, 100% O2): 0
- TUMOR perfusion [5, 13]: ↓*
- pressor activity (tumor perfusion) ([5]; i.a. infusion, hyperoxic rats versus i.a. room air): not altered
- decrease in tumor perfusion ([5]; i.a. infusion, normoxic animals, compared to i.v.): not significantly different compared to i.v. infusion
- tumor perfusion, flank tumors ([5]; i.v. infusion, 100% O2 (hyperoxia) versus room air): hyperoxia abolished the reduction in tumor perfusion
- tumor perfusion, window chamber tumors ([5]; i.v. infusion, hyperoxic rats): this decrease was prevented
- tumor perfusion, window chamber tumors [5, 12]: potent decrease in tumor perfusion
- tumor blood flow (perfusion), flank tumors ([5]; i.v. infusion): reduced perfusion
- fraction present as tetramers [6]: about 35%

Compound: CCON=O [ENO, ethyl nitrite]
- pO2 in quadriceps muscle (quadriceps muscle [7]; [14]): increased rapidly
- pO2 in quadriceps muscle (quadriceps muscle [7]; [15]): this effect was not seen
- growth of irradiated tumors (relative tumor volume) [8]: grew more slowly
- pO2 in tumors [9, 14]: above 10 mm Hg
- pO2 in tumors [9, 15]: remained largely unchanged

Compound: O=O [100% O2]
- Femoral artery HbO2 (Fischer 344 rats [10]): 98.2 ± 0.1 %
- Femoral artery pCO2 (Fischer 344 rats [10]): 56.9 ± 1.7 mm Hg
- Femoral artery pO2 (Fischer 344 rats [10]): 435.5 ± 34.7 mm Hg
- Femoral vein HbO2 (Fischer 344 rats [10]): 75.8 ± 3.4 %
- Femoral vein pCO2 (Fischer 344 rats [10]): 72.0 ± 2.1 mm Hg
- Femoral vein pO2 (Fischer 344 rats [10]): 69.8 ± 3.0 mm Hg
- Tumor artery HbO2 (Fischer 344 rats [10]; window chamber): 89 ± 2 %
- Tumor vein HbO2 (Fischer 344 rats [10]; window chamber): 78 ± 3 %
- pO2 in quadriceps muscle (quadriceps muscle [7]; [14]): increased rapidly
- diameter of tumor feeding arterioles (tumor-feeding arterioles; hyperoxia alone, t=-5 to t=0): no vascular effect
- change in HR (Fischer 344 rats [4]; hyperoxia alone, N=19): −3%
- change in MAP (Fischer 344 rats [4]; hyperoxia alone, N=19): +1%
- effects of hyperoxia alone on tumor and muscle perfusion ([5]; 100% O2 alone, before drug infusion): transient decrease that resumed within 5 minutes (i.e., before drug infusion) to no change
- pO2 in tumors [9, 14]: insufficient to raise the pO2 to above 10 mm Hg

Compound: albumin [reference compound]
- HR (Fischer 344 rats [4]; [16]): did not induce any significant or differential change
- MAP (Fischer 344 rats [4]; [16]): did not induce any significant or differential change
- TUMOR perfusion [5, 16]: did not induce any significant or differential change

Compound: oxyhemoglobin [oxy-Hb, reference compound]
- Baroreceptor effect [2, 17]: none
- Peripheral effect [2, 17]: vasoconstriction
- SYSTEMIC perfusion (quadriceps muscle [3]; IV, 100% O2): ↓
- SYSTEMIC perfusion (quadriceps muscle [3]; IV, Room air): ↓
- muscle blood flow (leg quadriceps) (quadriceps muscle [3]; i.v. infusion): hyperoxia did not modify the effect of oxy-Hb in muscles
- SYSTEMIC MAP (Fischer 344 rats [4]; IV, 100% O2): 0
- SYSTEMIC MAP (Fischer 344 rats [4]; IV, Room air): 0
- MAP (Fischer 344 rats [4]; i.v. infusion, normoxia or hyperoxia): no effect on MAP
- HR (Fischer 344 rats [4]; i.v. infusion, from 5 minutes after infusion, more severe in hyperoxic than in normoxic rats): induced bradycardia
- TUMOR perfusion ([5]; IV, 100% O2): ↓
- TUMOR perfusion [5, 13]: ↓
- tumor blood flow (perfusion), flank tumors ([5]; i.v. infusion): rapid and sustained decrease in tumor blood flow

Compound: SNO-albumin: bovine serum albumin reacted with NaNO2 (S-nitrosylated albumin) [reference compound]
- tumor blood flow (perfusion), flank tumors ([5]; i.v. infusion): small increase in tumor perfusion
